Laboratory results: the NIST ThermoML archive (doi:10.1016/j.jct.2013.05.024)

Test: excess molar enthalpy (molar enthalpy of mixing); xn = mol fraction of the nth substance listed
Conditions: 101.3 kPa, Liquid, Isoperibol calorimetry

CCOC(=O)C(=O)OCC [diethyl ethanedioate] + CC(C)O
excess molar enthalpy [kcal/mol]
Conditions	288.2 K	298.2 K	313.2 K	328.2 K
x1 = 0.0492	0.124	0.131	0.14	0.145
x1 = 0.0997	0.225	0.247	0.269	0.287
x1 = 0.1514	0.3023	0.332	0.3647	0.3903
x1 = 0.2009	0.3566	0.3936	0.4376	0.4658
x1 = 0.2507	0.4092	0.4541	0.5005	0.5368
x1 = 0.3005	0.4379	0.4852	0.5394	0.5741
x1 = 0.3499	0.4682	0.517	0.5717	0.6092
x1 = 0.3987	0.4837	0.5344	0.5896	0.635
x1 = 0.4504	0.4962	0.5461	0.6052	0.6417
x1 = 0.501	0.4976	0.5447	0.6033	0.6405
x1 = 0.55	0.4995	0.5442	0.5942	0.6317
x1 = 0.6018	0.4876	0.5284	0.5772	0.6126
x1 = 0.6515	0.4696	0.5072	0.5485	0.5774
x1 = 0.6985	0.4419	0.4763	0.5143	0.5385
x1 = 0.7478	0.4046	0.4319	0.4673	0.4847
x1 = 0.7996	0.354	0.3762	0.3984	0.4166
x1 = 0.8479	0.2935	0.308	0.3279	0.3356
x1 = 0.8985	0.217	0.223	0.238	0.235
x1 = 0.9515	0.118	0.112	0.114	0.121

CCOC(=O)C(=O)OCC [diethyl ethanedioate] + CCCO
excess molar enthalpy [kcal/mol]
Conditions	288.2 K	298.2 K	313.2 K	328.2 K
x1 = 0.0505	0.106	0.113	0.123	0.135
x1 = 0.1001	0.187	0.202	0.232	0.249
x1 = 0.1509	0.2524	0.2758	0.3152	0.3415
x1 = 0.1998	0.3033	0.3315	0.3776	0.4118
x1 = 0.2491	0.3415	0.3795	0.4328	0.4675
x1 = 0.2986	0.3755	0.4118	0.4696	0.5146
x1 = 0.3478	0.3996	0.4441	0.5043	0.5516
x1 = 0.4003	0.4192	0.4656	0.5284	0.5717
x1 = 0.4482	0.4302	0.4749	0.5382	0.5858
x1 = 0.499	0.4395	0.484	0.5447	0.5906
x1 = 0.5484	0.4371	0.4802	0.5392	0.586
x1 = 0.6007	0.4302	0.4732	0.5249	0.5648
x1 = 0.6509	0.4149	0.4527	0.5041	0.5368
x1 = 0.6986	0.3924	0.4247	0.4708	0.5038
x1 = 0.7487	0.3609	0.3877	0.4295	0.4517
x1 = 0.8015	0.3167	0.3403	0.3671	0.3853
x1 = 0.8509	0.2631	0.281	0.2988	0.3112
x1 = 0.9028	0.192	0.196	0.21	0.217
x1 = 0.9503	0.101	0.108	0.109	0.108

CCOC(=O)C(=O)OCC [diethyl ethanedioate] + CCO
excess molar enthalpy [kcal/mol]
Conditions	288.2 K	298.2 K	313.2 K	328.2 K
x1 = 0.0495	0.0698	0.0837	0.0949	0.104
x1 = 0.0994	0.135	0.161	0.185	0.205
x1 = 0.1508	0.194	0.222	0.257	0.2875
x1 = 0.2004	0.237	0.2679	0.3093	0.3468
x1 = 0.2497	0.2763	0.3083	0.3564	0.4006
x1 = 0.3009	0.3045	0.3411	0.3929	0.4379
x1 = 0.3502	0.3272	0.3654	0.4209	0.4706
x1 = 0.4003	0.3466	0.3846	0.4419	0.4933
x1 = 0.4508	0.3566	0.3989	0.4582	0.5081
x1 = 0.5011	0.3642	0.4051	0.463	0.5127
x1 = 0.5506	0.365	0.4051	0.4613	0.5112
x1 = 0.5986	0.3611	0.4001	0.4541	0.499
x1 = 0.6502	0.3511	0.385	0.4362	0.4775
x1 = 0.6996	0.3325	0.3638	0.4101	0.4474
x1 = 0.7525	0.3057	0.332	0.3731	0.4001
x1 = 0.8021	0.2713	0.2935	0.325	0.3456
x1 = 0.8473	0.2268	0.2481	0.2691	0.2878
x1 = 0.9034	0.164	0.172	0.19	0.194
x1 = 0.946	0.0997	0.101	0.116	0.116

CCOC(=O)C(=O)OCC [diethyl ethanedioate] + CO
excess molar enthalpy [kcal/mol]
Conditions	288.2 K	298.2 K	313.2 K	328.2 K
x1 = 0.0493	–	0.0523	0.06	0.0674
x1 = 0.0494	0.0464	–	–	–
x1 = 0.1004	–	0.101	0.12	0.139
x1 = 0.1005	0.0887	–	–	–
x1 = 0.1593	–	0.15	0.176	0.204
x1 = 0.2003	–	0.1771	0.2096	0.2407
x1 = 0.2004	0.156	–	–	–
x1 = 0.2505	–	0.207	0.2419	0.2789
x1 = 0.2507	0.1845	–	–	–
x1 = 0.299	–	0.2323	0.2725	0.3126
x1 = 0.2991	0.2072	–	–	–
x1 = 0.3509	–	0.2545	0.2978	0.3406
x1 = 0.3511	0.2259	–	–	–
x1 = 0.4017	–	0.2706	0.316	0.3616
x1 = 0.4019	0.2419	–	–	–
x1 = 0.4494	–	0.2823	0.3284	0.3731
x1 = 0.4496	0.2522	–	–	–
x1 = 0.4973	–	0.2909	0.3387	0.3843
x1 = 0.4975	0.261	–	–	–
x1 = 0.5507	–	0.2942	0.3399	0.3843
x1 = 0.5509	0.2658	–	–	–
x1 = 0.5967	–	0.2935	0.3377	0.3798
x1 = 0.5969	0.2651	–	–	–
x1 = 0.6473	–	0.2856	0.3274	0.3633
x1 = 0.6475	0.2605	–	–	–
x1 = 0.7032	–	0.2694	0.3112	0.3389
x1 = 0.7033	0.2467	–	–	–
x1 = 0.7468	–	0.2588	0.2911	0.3105
x1 = 0.7469	0.2333	–	–	–
x1 = 0.8037	–	0.238	0.2593	0.2641
x1 = 0.8039	0.2072	–	–	–
x1 = 0.8449	–	0.209	0.2285	0.2216
x1 = 0.845	0.18	–	–	–
x1 = 0.9004	–	0.152	0.156	0.147
x1 = 0.9005	0.127	–	–	–
x1 = 0.9484	0.0676	0.0887	0.0944	0.0844
